# Test results published in patent US20080044348A1 (priority 2006, published 2008).
# System: HIF1α signaling
# Type: cell-based
Compound,effect on CoCl2-induced HIF1α signaling,time to induce hypoxia in the entire spheroid [h]
COc1ccc(C[C@H]2NC[C@H](O)[C@H]2OC(C)=O)cc1 [Anisomycin],suppressed CoCl2-induced HIF1α signaling,–
Nc1ccn([C@@H]2O[C@H](CO)[C@@H](O)C2(F)F)c(=O)n1 [Gemzar],suppressed CoCl2-induced HIF1α signaling,–
COc1cc(C[C@H]2C(=O)OC[C@@H]2Cc2ccc(OC)c(OC)c2)ccc1O [Arctigenin],suppressed CoCl2-induced HIF1α signaling,–
COc1cc2ncnc(Nc3ccc(F)c(Cl)c3)c2cc1OCCCN1CCOCC1 [Iressa],suppressed CoCl2-induced HIF1α signaling,–
[Cl][Co][Cl] [Cobalt chloride],–,6 to 8
C[S+]([O-])c1ccc(-c2nc(-c3ccncc3)c(-c3ccc(F)cc3)[nH]2)cc1 (centres unmarked) [SB 203580],no significant effect on HIF1α signaling,–
Cc1ccc(NC(=O)c2ccc(CN3CCN(C)CC3)cc2)cc1Nc1nccc(-c2cccnc2)n1 [Gleevec],no significant effect on HIF1α signaling,–
COc1cc2c(cc1OC)[C@@H]1C(=O)c3ccc4c(c3O[C@@H]1CO2)C=CC(C)(C)O4 [Deguelin],no significant effect on HIF1α signaling,–
CCCCCCCCCCC[C@@H](C[C@@H]1OC(=O)[C@H]1CCCCCC)OC(=O)[C@H](CC(C)C)NC=O [Orlistat],suppressed CoCl2-induced HIF1α signaling,–
C#Cc1cccc(Nc2ncnc3cc(OCCOC)c(OCCOC)cc23)c1 [Tarceva],suppressed CoCl2-induced HIF1α signaling,–
PD 168393,no significant effect on HIF1α signaling,–
